ChEMBL document CHEMBL2375321, “Discovery of 3,3'-diindolylmethanes as potent antileishmanial agents” (Eur J Med Chem, 2013)
In brackets after ≈: the same amount, converted by molar mass. Activity calls are given as the source filed them. Unless noted, no cut-off for these calls is given here.

Key:
Leishmania donovani [1] = assay: Antileishmanial activity against promastigote of Leishmania donovani after 72 hrs by alamar blue assay; assay type: functional, organism-based; details: for IC50: read-out: IC50
Staphylococcus aureus [2] = assay: Antibacterial activity against Staphylococcus aureus ATCC 29213 by CLSI method; assay type: functional, organism-based
Vero = assay: Cytotoxicity against african green monkey Vero cells up to 4.6 ug/ml after 48 hrs by neutral red assay; assay type: cell-based; details: chlorocebus sabaeus
[3] = system: Mycobacterium intracellulare; assay: Antibacterial activity against Mycobacterium intracellulare ATCC 23068 by alamar blue assay; assay type: functional, organism-based
Plasmodium falciparum = assay: Antimalarial activity against chloroquine-sensitive Plasmodium falciparum D6 assessed as plasmodial LDH activity after 72 hrs; assay type: functional, organism-based; details: D6, 72 h
Staphylococcus aureus [4] = assay: Antibacterial activity against methicillin-resistant Staphylococcus aureus ATCC 33591 by CLSI method; assay type: functional, organism-based
Leishmania donovani [5] = assay: Antileishmanial activity against axenic amastigote of Leishmania donovani after 72 hrs by alamar blue assay; assay type: functional, organism-based
Cryptococcus neoformans = assay: Antifungal activity against Cryptococcus neoformans ATCC 90113 by CLSI method; assay type: functional, organism-based
Candida albicans = assay: Antifungal activity against Candida albicans ATCC 90028 by CLSI method; assay type: functional, organism-based
Aspergillus fumigatus = assay: Antifungal activity against Aspergillus fumigatus ATCC 204305 by CLSI method; assay type: functional, organism-based
Bacillus subtilis = assay: Antibacterial activity against Bacillus subtilis by CLSI method; assay type: functional
[6] = Leishmania donovani, 72 h, read-out: IC50
[7] = Staphylococcus aureus, ATCC 33591
[8] = Staphylococcus aureus, ATCC 33591, read-out: IC50

SMILES	IC90 (Leishmania donovani [1]; Leishmania donovani, 72 h) [µM]	IC50 (Leishmania donovani [1]; Leishmania donovani, 72 h) [µM]	IC50 (Staphylococcus aureus [2]) [µM]	MBC (Staphylococcus aureus [2])	MIC (Staphylococcus aureus [2])	Activity (Vero)	IC50 [3]	MBC [3]	MIC [3]	MBC (Staphylococcus aureus [4])	MIC (Staphylococcus aureus [4])	IC90 (Leishmania donovani [5]; Leishmania donovani, 72 h) [µM]	IC50 (Leishmania donovani [5]; [6]) [µM]	IC50 (Cryptococcus neoformans) [µM]	Activity (Candida albicans)	MIC (Staphylococcus aureus [4]; [7]) [µM]	IC50 (Staphylococcus aureus [4]; [8]) [µM]	Activity (Aspergillus fumigatus)	MFC (Cryptococcus neoformans)	MIC (Cryptococcus neoformans)	further results
Clc1cccc(Cl)c1C(c1c[nH]c2ccccc12)c1c[nH]c2ccccc12	90.8	80.7	2.36	51.3 µM (≈ 20.1 µg/mL)	6.41 µM (≈ 2.51 µg/mL)	Non-toxic	Not Active	inactive	inactive	inactive	inactive	81.5	48.4								IC50 (Plasmodium falciparum): 12.1 µM; IC50 (Staphylococcus aureus [4]): Not Active
Oc1ccc(C(c2c[nH]c3ccc(I)cc23)c2c[nH]c3ccc(I)cc23)cc1	53.2	19.1	2.1	33.9 µM (≈ 20 µg/mL)	4.24 µM (≈ 2.5 µg/mL)	Non-toxic	Not Active	inactive	inactive			52.5	39.8	1.8	inactive	2.12 (≈ 1.25 µg/mL)	1.15	inactive			MBC (Staphylococcus aureus [4]; [7]): 10 µM (≈ 5.9 µg/mL)
COc1ccc(C(c2c[nH]c3ccccc23)c2c[nH]c3ccccc23)cc1	106	89	9.06	inactive	inactive	Non-toxic	Not Active	inactive	inactive	inactive	inactive			35.5	inactive			inactive	inactive	inactive	IC50 (Staphylococcus aureus [4]): Not Active; IC50 (Leishmania donovani [5]): Not Active; IC90 (Leishmania donovani [5]): inactive
COc1cc(C(c2c[nH]c3ccc(I)cc23)c2c[nH]c3ccc(I)cc23)ccc1O	37.9	20.8	1.89	inactive	4.03 µM (≈ 2.5 µg/mL)	Non-toxic	Not Active	inactive	inactive	inactive		47.2	31.6	3.92	inactive	4.03 (≈ 2.5 µg/mL)	2.11	inactive	inactive	32.3 µM (≈ 20 µg/mL)	
COc1ccc2[nH]cc(C(c3cc(F)cc(F)c3)c3c[nH]c4ccc(OC)cc34)c2c1	65.3	26.8	4.05	inactive	11.7 µM (≈ 4.9 µg/mL)	Non-toxic	Not Active	inactive	inactive	inactive		78.7	49.6	18.4	inactive	11.7 (≈ 4.9 µg/mL)	6.89	inactive	inactive	47.9 µM (≈ 20 µg/mL)	
COc1ccc(C(c2c[nH]c3ccccc23)c2c[nH]c3ccccc23)cc1O	95.6	85	7.47	inactive	13.6 µM (≈ 5.01 µg/mL)	Non-toxic	Not Active	inactive	inactive	inactive		79.5	42.2	16.9	inactive	27.2 (≈ 10 µg/mL)	12.3	inactive	27.2 µM (≈ 10 µg/mL)	27.2 µM (≈ 10 µg/mL)	
Fc1ccc(C(c2c[nH]c3ccccc23)c2c[nH]c3ccccc23)cc1Br	22.9	17.6	3.76	inactive	5.98 µM (≈ 2.51 µg/mL)	Non-toxic	Not Active	inactive	inactive	inactive		74.5	47.5	1.94	inactive	23.9 (≈ 10 µg/mL)	9.23	inactive	5.98 µM (≈ 2.51 µg/mL)	2.99 µM (≈ 1.25 µg/mL)	
Brc1cccc(C(c2c[nH]c3ccccc23)c2c[nH]c3ccccc23)c1	59.4	27.4	3.75	inactive	12.5 µM (≈ 5.02 µg/mL)	Non-toxic	Not Active	inactive	inactive	inactive		75.6	35.9	5.33	inactive	12.5 (≈ 5.02 µg/mL)	6.3	inactive	12.5 µM (≈ 5.02 µg/mL)	12.5 µM (≈ 5.02 µg/mL)	
O=C1N[C@@H](c2c[nH]c3cc(Br)ccc23)CN=C1c1c[nH]c2cc(Br)ccc12 [HAMACANTHIN A]					6.45 µM (≈ 3.14 µg/mL)											6.45 (≈ 3.14 µg/mL)					MIC (Bacillus subtilis): 3.22 µM (≈ 1.57 µg/mL)
Clc1ccc(C(c2c[nH]c3ccccc23)c2c[nH]c3ccccc23)cc1	39	26.7	3.79	inactive	7.02 µM (≈ 2.51 µg/mL)	Non-toxic	Not Active	inactive	inactive			77	42	5.56	inactive	14 (≈ 5 µg/mL)	6.12	inactive	14 µM (≈ 5.01 µg/mL)	14 µM (≈ 5.01 µg/mL)	MBC (Staphylococcus aureus [4]; [7]): 56.2 µM (≈ 20.1 µg/mL)
c1csc(C(c2c[nH]c3ccccc23)c2c[nH]c3ccccc23)c1		100	9.15	inactive	15.2 µM (≈ 4.99 µg/mL)	Non-toxic	Not Active	inactive	inactive	inactive	inactive	101	70.2	18.9	inactive		13.5	inactive	30.5 µM (≈ 10 µg/mL)	30.5 µM (≈ 10 µg/mL)	IC90 (Leishmania donovani [1]): inactive
Oc1ccccc1C(c1c[nH]c2ccccc12)c1c[nH]c2ccccc12	75.7	41.1	17.2	inactive	59.2 µM (≈ 20 µg/mL)	Non-toxic	Not Active	inactive	inactive	inactive	inactive		95.9	14.6	inactive		36.2	inactive	inactive	59.2 µM (≈ 20 µg/mL)	IC90 (Leishmania donovani [5]): inactive
